Assay results from ChEMBL document CHEMBL4385604, “Identification of Pyrrolo[2,3- d]pyrimidine-Based Derivatives as Potent and Orally Effective Fms-like Tyrosine Receptor Kinase 3 (FLT3) Inhibitors for Treating Acute Myelogenous Leukemia” (J Med Chem, 2019).

Assays:
MOLM-13 [1] = experiment: Cell cycle arrest in human MOLM13 cells assessed as accumulation at S phase at 1 nM after 24 hrs by propidium iodide staining-based flow cytometric analysis (reference value: 41.95%); type: functional
MOLM-13 [2] = experiment: Cell cycle arrest in human MOLM13 cells assessed as accumulation at G0/G1 phase at 30 nM after 24 hrs by propidium iodide staining-based flow cytometric analysis (reference value: 44.53%); type: functional
MOLM-13 [3] = experiment: Induction of apoptosis in human MOLM13 cells assessed as late apoptotic cells at 10 nM after 48 hrs by Annexin V/propidium iodide staining based flow cytometry (reference value: 5.52%); type: functional
MV4-11 [4] = experiment: Induction of apoptosis in human MV4-11 cells assessed as early apoptotic cells at 100 nM after 48 hrs by Annexin V/propidium iodide staining based flow cytometry (reference value: 2.76%); type: functional
MV4-11 [5] = experiment: Cell cycle arrest in human MV4-11 cells assessed as accumulation at S phase at 30 nM after 24 hrs by propidium iodide staining-based flow cytometric analysis (reference value: 30.12%); type: functional
BaF3 = experiment: cells; settings: Mus musculus, BaF3, 72 h
Description: Antiproliferative activity against mouse BAF3 cells harboring FLT3-ITD-F691L mutant measured after 72 hrs by MTT assay

MOLM-13 [6] = experiment: Induction of apoptosis in human MOLM13 cells assessed as late apoptotic cells at 1 uM after 48 hrs by Annexin V/propidium iodide staining based flow cytometry (reference value: 5.52%); type: functional
[7] = molecular target: Receptor-type tyrosine-protein kinase FLT3 (Homo sapiens, UniProt P36888, ITD); experiment: Binding affinity to human partial length FLT3 ITD mutant expressed in Escherichia coli measured after 1 hr by qPCR analysis
MV4-11 [8] = experiment: Induction of apoptosis in human MV4-11 cells assessed as necrotic cells at 1 nM after 48 hrs by Annexin V/propidium iodide staining based flow cytometry (reference value: 0.06%); type: functional
MOLM-13 [9] = experiment: cells; settings: Homo sapiens, MOLM-13, 72 h
Description: Antiproliferative activity against human MOLM13 cells harboring FLT3-ITD mutant measured after 72 hrs by MTT assay

MV4-11 [10] = experiment: Cell cycle arrest in human MV4-11 cells assessed as accumulation at G2/M phase at 10 nM after 24 hrs by propidium iodide staining-based flow cytometric analysis (reference value: 21.12%); type: functional
MOLM-13 [11] = experiment: Cell cycle arrest in human MOLM13 cells assessed as accumulation at G0/G1 phase at 3 nM after 24 hrs by propidium iodide staining-based flow cytometric analysis (reference value: 44.53%); type: functional
[12] = molecular target: Receptor-type tyrosine-protein kinase FLT3 (Homo sapiens) (UniProt P36888); experiment: Inhibition of FLT3 autophosphorylation in human MV4-11 cells assessed as ratio of phosphorylated FLT3 to beta-actin level at 100 nM after 2 hrs by Western blot analysis relative to control; type: cell-based
MV4-11 [13] = experiment: Antitumour activity against human MV4-11 cells xenografted in po dosed NOD/SCID mouse assessed as tumour growth inhibition administered daily for 14 days; type: functional, organism-based
[14] = molecular target: Mast/stem cell growth factor receptor Kit (Homo sapiens, UniProt P10721); experiment: Inhibition of recombinant human c-Kit (544 to end residues) using poly(Glu, Tyr) 4:1 as substrate measured after 40 mins in presence of [gamma-33P]-ATP by scintillation counting analysis
Chain of Mast/stem cell growth factor receptor Kit (P10721 whole entry): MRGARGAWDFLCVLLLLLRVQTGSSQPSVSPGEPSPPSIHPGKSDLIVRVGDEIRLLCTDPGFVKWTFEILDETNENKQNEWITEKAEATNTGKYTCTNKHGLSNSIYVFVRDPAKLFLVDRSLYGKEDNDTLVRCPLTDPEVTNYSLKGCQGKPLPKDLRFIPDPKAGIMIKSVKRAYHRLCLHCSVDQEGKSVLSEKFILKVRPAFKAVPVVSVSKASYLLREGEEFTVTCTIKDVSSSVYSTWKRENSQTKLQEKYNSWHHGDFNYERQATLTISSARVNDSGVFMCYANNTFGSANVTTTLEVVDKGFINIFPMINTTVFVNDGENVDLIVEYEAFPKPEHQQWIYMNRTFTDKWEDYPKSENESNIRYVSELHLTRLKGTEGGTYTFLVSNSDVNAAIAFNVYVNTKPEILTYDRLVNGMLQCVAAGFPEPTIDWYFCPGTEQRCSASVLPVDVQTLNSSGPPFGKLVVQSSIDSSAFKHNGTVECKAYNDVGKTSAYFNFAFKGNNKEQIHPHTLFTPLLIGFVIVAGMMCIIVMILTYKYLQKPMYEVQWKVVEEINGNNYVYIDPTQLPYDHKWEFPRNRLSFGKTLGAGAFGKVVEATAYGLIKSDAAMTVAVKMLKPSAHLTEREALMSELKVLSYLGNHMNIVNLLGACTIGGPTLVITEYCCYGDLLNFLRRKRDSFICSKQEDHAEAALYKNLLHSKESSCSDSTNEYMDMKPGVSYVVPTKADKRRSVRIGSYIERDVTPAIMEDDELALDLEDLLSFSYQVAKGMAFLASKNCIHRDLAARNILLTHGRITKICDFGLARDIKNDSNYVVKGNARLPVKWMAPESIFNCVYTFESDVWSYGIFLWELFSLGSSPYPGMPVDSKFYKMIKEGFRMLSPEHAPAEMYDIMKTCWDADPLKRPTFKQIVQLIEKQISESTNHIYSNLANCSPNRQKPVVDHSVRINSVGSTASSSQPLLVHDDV

MV4-11 [15] = experiment: Cell cycle arrest in human MV4-11 cells assessed as accumulation at G0/G1 phase at 1 nM after 24 hrs by propidium iodide staining-based flow cytometric analysis (reference value: 48.76%); type: functional
[16] = molecular target: Receptor-type tyrosine-protein kinase FLT3 (Homo sapiens, UniProt P36888, D835Y); experiment: Binding affinity to human partial length FLT3 D835Y mutant (Q580 to Y969 residues) expressed in Escherichia coli after 1 hr by qPCR analysis
[17] = Plasma clearance in Sprague-Dawley rat at 5 mg/kg, po by LC-MS/MS analysis; type: ADME, organism-based
[18] = Elimination half-life in Sprague-Dawley rat at 5 mg/kg, po by LC-MS/MS analysis; type: ADME, organism-based; settings: in vivo, read-out: beta t1/2 (converted)
MOLM-13 [19] = experiment: Induction of apoptosis in human MOLM13 cells assessed as late apoptotic cells at 10 uM after 48 hrs by Annexin V/propidium iodide staining based flow cytometry (reference value: 5.52%); type: functional
[20] = Toxicity in NOD/SCID mouse xenografted with human MV4-11 cells at 10 mg/kg, po qd for 18 days; type: organism-based; settings: in vivo, 432 h
MOLM-13 [21] = experiment: Induction of apoptosis in human MOLM13 cells assessed as viable cells at 10 uM after 48 hrs by Annexin V/propidium iodide staining based flow cytometry (reference value: 88.2%); type: functional; settings: MOLM-13, 48 h, read-out: Activity
MOLM-13 [22] = experiment: Induction of apoptosis in human MOLM13 cells assessed as early apoptotic cells at 10 nM after 48 hrs by Annexin V/propidium iodide staining based flow cytometry (reference value: 5.97%); type: functional
HL-60 = experiment: Antiproliferative activity against human HL60 cells harboring wild-type FLT3 measured after 72 hrs by MTT assay; type: functional, cell-based; settings: HL-60, 72 h
MV4-11 [23] = experiment: Induction of apoptosis in human MV4-11 cells assessed as necrotic cells at 10 nM after 48 hrs by Annexin V/propidium iodide staining based flow cytometry (reference value: 0.06%); type: functional
[24] = Oral bioavailability in Sprague-Dawley rat at 5 mg/kg by LC-MS/MS analysis; type: ADME, organism-based; settings: in vivo
[25] = test system: Receptor-type tyrosine-protein kinase FLT3 (Homo sapiens), P36888 [UNDEFINED MUTATION]; experiment: Inhibition of FLT3 ITD mutant in human MOLM13 cells assessed as ratio of phosphorylated STAT5 to beta-actin level at 100 nM after 2 hrs by Western blot analysis relative to control; type: cell-based
MV4-11 [26] = experiment: Cell cycle arrest in human MV4-11 cells assessed as accumulation at G0/G1 phase at 10 nM after 24 hrs by propidium iodide staining-based flow cytometric analysis (reference value: 48.76%); type: functional
[27] = test system: Receptor-type tyrosine-protein kinase FLT3 (Homo sapiens), P36888 [UNDEFINED MUTATION]; experiment: Inhibition of FLT3 ITD mutant in human MV4-11 cells assessed as ratio of phosphorylated STAT5 to beta-actin level at 30 nM after 2 hrs by Western blot analysis relative to control; type: cell-based
[28] = molecular target: Receptor-type tyrosine-protein kinase FLT3 (Homo sapiens, UniProt P36888, D835H); experiment: Binding affinity to human partial length FLT3 D835H mutant (V592 to Y969 residues) expressed in Escherichia coli after 1 hr by qPCR analysis
MOLM-13 [29] = experiment: Induction of apoptosis in human MOLM13 cells assessed as necrotic cells at 1 uM after 48 hrs by Annexin V/propidium iodide staining based flow cytometry (reference value: 0.29%); type: functional
MV4-11 [30] = experiment: Cell cycle arrest in human MV4-11 cells assessed as accumulation at G2/M phase at 3 nM after 24 hrs by propidium iodide staining-based flow cytometric analysis (reference value: 21.12%); type: functional
[31] = test system: Receptor-type tyrosine-protein kinase FLT3 (Homo sapiens), P36888 [UNDEFINED MUTATION]; experiment: Inhibition of FLT3 ITD mutant in human MV4-11 cells assessed as ratio of phosphorylated STAT5 to beta-actin level at 100 nM after 2 hrs by Western blot analysis relative to control; type: cell-based
MV4-11 [32] = experiment: Inhibition of MAPK in human MV4-11 cells assessed as ratio of phosphorylated ERK to beta-actin level at 30 nM after 2 hrs by Western blot analysis relative to control; type: cell-based

IC50 (BaF3): 13 nM
Kd [7]: 20.5 nM
IC50 (MOLM-13 [9]): 0.022 nM
fold change (FC) [12]: 0
IC50 [14]: > 300 nM
Kd [16]: 7.78 nM
CL/F [17]: 20.3 mL/min/kg
half-life [18]: 2.06 h
IC50 (HL-60): > 1000 nM
bioavailability [24]: 59.5%
fold change (FC) [25]: 0
fold change (FC) [27]: 0
Kd [28]: 5.14 nM
fold change (FC) [31]: 0
Compound: C=CCn1cc(-c2ccc(NC(=O)Nc3cc(C(C)(C)C)on3)cc2)c2c(N)ncnc21
Activity (MOLM-13 [1]): 35.23%
Activity (MOLM-13 [2]): 94.68%
Activity (MOLM-13 [3]): 18.3%
Activity (MV4-11 [4]): 11.3%
Activity (MV4-11 [5]): 1.96%
Activity (MOLM-13 [6]): 46.8%
Activity (MV4-11 [8]): 0.13%
Activity (MV4-11 [10]): 2.2%
Activity (MOLM-13 [11]): 83.62%
TGI (MV4-11 [13]): Dose-dependent effect
Activity (MV4-11 [15]): 50.94%
Activity (MOLM-13 [19]): 98.5%
Activity [20]: Non-Toxic
viability at 10 µM (MOLM-13 [21]): 0.48%
Activity (MOLM-13 [22]): 15.5%
Activity (MV4-11 [23]): 0.2%
Activity (MV4-11 [26]): 95.74%
Activity (MOLM-13 [29]): 0.62%
Activity (MV4-11 [30]): 4.08%
fold change (FC) (MV4-11 [32]): 0
